In patent US6632447B1, “Method for chemoprevention of prostate cancer” (The University of Tennessee Research Corporation, priority 1998, dated 2003):

Legend:
[1] = system: prostate cancer in the ventral prostate of TRAMP mice; test: Chemopreventive activity of toremifene pellets in TRAMP transgenic mice (palpable tumor formation); assay type: in vivo, mouse
Source text: The study of prostate cancer chemoprevention has been hindered by the lack of appropriate animal models. The recent development of the transgenic adenocarcinoma mouse prostate (TRAMP) model enables the study of chemoprevention. In the TRAMP model, which is described in Greenberg et al., AProstate cancer in a transgenic mouse, Proc. Natl Acad. Sci. USA, 1995, Vol. 92, pages 3439-3443, the PB-SV40 large T antigen (PB-Tag) transgene is expressed specifically in the epithelial cells of the murine prostate. […]
A study was undertaken to test the efficacy of chemopreventive agents in TRAMP transgenic animals (PBTag X FVBwt) (provided by Dr. Norman Greenberg, Baylor College of Medicine, TX). […] The efficacy of the treatment was measured by the absence of palpable tumor formation. The murine prostate tumors were harvested and evaluated by molecular and histological techniques.

[2] = system: TRAMP mouse ventral prostate; test: Histological examination (H&E) of ventral prostate tissue of TRAMP mice; assay type: in vivo; details: toremifene-treated 30-week-old TRAMP mouse vs placebo-treated 16-week-old
Experimental: 1) Prostate wholemount analysis is serially performed to detect changes in prostate ductal morphology over time with and without treatment; examples are shown in FIG. 2. Tissue sections are evaluated histologically by H&E and Masson-trichome standard staining. The emergence of PIN is assessed and graded (I-mild to III-severe).
Tumors from the placebo and high toremifene-treated groups taken at the time of palpation were evaluated histologically. FIG. 2A is an H&E section of the ventral prostate of a 17-week-old normal adult mouse.

[3] = system: prostate tumor in TRAMP mice; test: Prostatic wholemount, histology and large T antigen immunohistochemistry in TRAMP mice; assay type: in vivo, mouse; details: vs placebo at 15 weeks
Experimental: This present study focuses on the histological and molecular changes associated with development of prostate tumor in control animals and the mechanism of toremifene chemopreventive action with TRAMP animals which are bred, screened and treated with sustained-release drug pellets. At predetermined times, groups of 5 animals were sacrificed and their prostates were removed for analysis. The prostate glands were evaluated for the presence of tumor by histology, wholemount dissections, and large T antigen immunohistochemistry. To date, the Placebo and the Toremifene treatments have been completed for the 7, 10, 15 and 20 week time-points and the results are described below.
Prostatic wholemounts for 7, 10, 15, and 20 weeks for the various groups have been completed. […] By 20 weeks, there is a striking delay in tumor occurrence in the Toremifene treated group up to 35 weeks FIG. 4). […] For histological evaluation, tissue samples were fixed, processed and paraffin embedded. Sections ([…]) were cut and stained by routine H&E method.

[4] = system: prostate intraepithelial neoplasia (PIN); test: Phase IIa prostate cancer chemoprevention human clinical trial (PIN regression); assay type: in vivo; details: 60 mg daily for 4 months
Experimental: A Phase IIa, open labeled non randomized single center study with 21 human subjects was conducted. […] After 4 months, patients are rebiopsied (8 biopsies) and PIN status is reassessed. Twenty-one patients entered the study and sixteen patients have completed the study.

[5] = system: human stromal fibroblast cells; test: TGF synthesis in human stromal fibroblast cells; assay type: cell-based

- serum PSA, serum free testosterone, serum total testosterone and serum estradiol [4]: remained in the normal ranges
SMILES: CN(C)CCOc1ccc(/C(=C(/CCCl)c2ccccc2)c2ccccc2)cc1 [Toremifene, toremifene]
- delay of time to tumors in 25% of the animals ([1]; high and low toremifene groups versus placebo): 7-8 weeks
- week by which tumors were palpable in 25% of the animals ([1]; high and low toremifene groups, placebo week 23): 30-31 weeks
- glandular architecture of the prostate (H&E) [2]: retains much of the normal glandular architecture
- mitotic index [2]: much lower than that for the placebo-treated animal
- ductal development and tissue differentiation (H&E histology) [3]: inhibited the ductal development and tissue differentiation
- patients with regression of PIN to benign or atrophic prostate tissue (complete response) ([4]; 16 patients completed): 12 out of 16
- TGF? synthesis [5]: significantly induce TGF? synthesis
